Test results published in BindingDB's records for doi:10.7270/Q2S46QSD (D3R/Abbott, 2015).

Biological target: Mitogen-activated protein kinase 1 (Homo sapiens, UniProt P28482)
Assay: Photometric_Method2

Chain of Mitogen-activated protein kinase 1 (P28482 whole entry): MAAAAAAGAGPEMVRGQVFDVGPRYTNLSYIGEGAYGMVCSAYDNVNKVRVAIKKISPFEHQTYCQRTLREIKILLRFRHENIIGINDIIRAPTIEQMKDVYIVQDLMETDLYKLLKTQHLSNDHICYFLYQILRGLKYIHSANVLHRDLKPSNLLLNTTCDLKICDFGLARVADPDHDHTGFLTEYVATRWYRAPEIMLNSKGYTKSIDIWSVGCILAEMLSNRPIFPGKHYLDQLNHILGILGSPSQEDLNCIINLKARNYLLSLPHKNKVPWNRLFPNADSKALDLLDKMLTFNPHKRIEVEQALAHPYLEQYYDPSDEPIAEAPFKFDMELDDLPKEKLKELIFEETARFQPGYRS

Row | Ki | SMILES
1 | 7.1 nM | Cc1cnc(N[C@H]2CCC[C@H]2O)nc1-c1c[nH]c(C(=O)N[C@H](CO)c2cccc(Cl)c2)c1 [erk000612]
2 | 7.1 nM | Cc1cnc(NN2CCCC2)nc1-c1c[nH]c(C(=O)N[C@H](CO)c2cccc(Cl)c2)c1 [erk000624]
3 | 7.9 nM | Cc1cnc(Nc2ccc(Cl)cc2Cl)nc1-c1c[nH]c(C(=O)N[C@H](CO)c2ccccc2)c1 [erk000657]
4 | 7.9 nM | Cc1cnc(N[C@@H](CO)CC(F)(F)F)nc1-c1c[nH]c(C(=O)N[C@H](CO)c2cccc(Cl)c2)c1 [erk000675]
5 | 7.1 nM | CCOC(=O)N1CCC(Nc2ncc(Cl)c(-c3c[nH]c(C(=O)N[C@H](CO)c4cccc(Cl)c4)c3)n2)CC1 [erk000703]

The next lines start with the compound.

Row | SMILES | Ki
6 | Cc1cnc(N[C@H]2CCCC[C@H]2O)nc1-c1c[nH]c(C(=O)N[C@H](CO)c2ccccc2)c1 [erk000465] | 7.1 nM
7 | Cc1cnc(NN(C)C)nc1-c1c[nH]c(C(=O)N[C@H](CO)c2ccccc2)c1 [erk000505] | 7.1 nM
8 | Cc1cnc(NCCc2ccccc2)nc1-c1c[nH]c(C(=O)N[C@H](CO)c2ccccc2)c1 [erk000578] | 7.1 nM
9 | Cc1cnc(NC2CCOCC2)nc1-c1c[nH]c(C(=O)N[C@H](CO)c2cccc(Cl)c2)c1 [erk000584] | 7.9 nM
10 | Cc1ccc(Nc2ncc(C)c(-c3c[nH]c(C(=O)N[C@H](CO)c4cccc(Cl)c4)c3)n2)cc1 [erk000585] | 7.1 nM
11 | Cc1cnc(Nc2cccc3c2OC(F)(F)O3)nc1-c1c[nH]c(C(=O)N[C@H](CO)c2ccccc2)c1 [erk000591] | 7.9 nM
12 | Cc1cccc([C@@H](CO)NC(=O)c2cc(-c3nc(Nc4cccc(F)c4C)ncc3C)c[nH]2)c1 [erk000601] | 7.9 nM
